How the values were obtained:
[1] = Pharmacokinetic analysis of compounds in mouse plasma after oral gavage or intravenous injection; format: in vivo, Male C57BL/6J mice; conditions: for AUC(0-t) at 24 h / Cmax / Tmax / half-life / clearance: mouse plasma; for AUC(0-t) at 24 h / Cmax / Tmax: dose 5 mg/kg single oral gavage; for half-life: table dose 5 mg/kg (oral gavage); for clearance: table dose 5 mg/kg, IV arm was 1 mg/kg; for F: mouse, PO 5 mg/kg versus IV 1 mg/kg
Procedure: Male C57BL/6J mice, approximately 30 g, 6-9 weeks old, gavage oral administration and intravenous injection: 3 mice per compound, animals from Shanghai Medicilon Inc.
The pharmacokinetic characteristics of the compounds were tested in mice after oral gavage (PO) or intravenous injection (IV) using a standard protocol. The test compounds were prepared as clear solutions with the vehicle: 10% (v/v) DMSO + 10% (v/v) Solutol + 80% (v/v) Saline. Three mice were administered a single oral gavage dose of 5 mg/kg, and blood samples were collected at 0.25, 0.5, 1, 2, 4, 6, 8, and 24 hours post-dose via submandibular vein or other appropriate methods. Each sample collected was approximately 0.03 mL, anticoagulated with sodium heparin, and placed on ice after collection. Additionally, three mice were administered a single intravenous injection of 1 mg/kg of the test compound, and blood samples were collected at 0.083, 0.25, 0.5, 1, 2, 4, 8, and 24 hours post-dose via submandibular vein or other appropriate methods. Each sample collected was approximately 0.03 mL, anticoagulated with sodium heparin, and placed on ice after collection. Plasma was separated by centrifugation within 1 hour (centrifugation conditions: 6800g, 6 minutes, 2-8°C), and the concentration of the compounds of the present invention was analyzed by LC-MS/MS method.
Prior to analysis, all samples were stored at -80°C, and pharmacokinetic parameters were calculated using Phoenix WinNonlin. Table 2: Pharmacokinetic Parameters

[2] = target: Human GLP-1R (Homo sapiens, UniProt P43220); experiment: cAMP level determination in human GLP-1R stably transfected HEK293T cells (HTRF cAMP kit); format: cell-based; conditions: 37°C 30 min
Chain of Human GLP-1R (P43220 24-463): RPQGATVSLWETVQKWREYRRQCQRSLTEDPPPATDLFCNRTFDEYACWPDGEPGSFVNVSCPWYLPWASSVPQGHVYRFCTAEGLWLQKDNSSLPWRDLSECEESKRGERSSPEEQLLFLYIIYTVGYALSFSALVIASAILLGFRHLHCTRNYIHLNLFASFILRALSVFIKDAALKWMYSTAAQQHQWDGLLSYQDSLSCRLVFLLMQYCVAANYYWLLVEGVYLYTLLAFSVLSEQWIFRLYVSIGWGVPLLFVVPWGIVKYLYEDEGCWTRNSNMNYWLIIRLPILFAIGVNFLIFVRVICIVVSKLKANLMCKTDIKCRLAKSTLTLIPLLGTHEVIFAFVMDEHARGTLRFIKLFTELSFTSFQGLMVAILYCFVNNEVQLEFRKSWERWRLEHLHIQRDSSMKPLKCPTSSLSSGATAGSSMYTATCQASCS
Summary of the method: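 Stably transfected HEK293T cells (1 Million/mL) stimulated 30 min at 37°C with compound (top final 2000 nM, 1:3, 11 points, 0.2% DMSO) plus 0.5 mM IBMX. HTRF cAMP read after 2 hr RT; stimulation % normalised to 100 nM GLP-1 and DMSO wells, cAMP from standard curve, EC50 by four-parameter fit.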

| Compound | AUC(0-t) at 24 h [1] [ng·h/mL] | Cmax [1] [ng/mL] | Tmax [1] [h] | half-life [1] [h] | clearance [1] [mL/min/kg] | F [1] [%] | EC50 [2] [nM] |
| --- | --- | --- | --- | --- | --- | --- | --- |
| Cc1cc(-n2nc3c(c2-n2ccn(-c4ccc(C(=O)N(C)C5CC5)c(Cl)c4)c2=O)[C@H](C)N(C(=O)c2cc4cc([C@H]5CCOC(C)(C)C5)ccc4n2[C@@]2(c4nc(=O)o[nH]4)C[C@@H]2C)CC3)cc(C)c1F [Compound 11] | 35200 | 3170 | 3 | 4.27 | 2.02 | 87.27 | 5.03 |
| Cc1cc(-n2nc3c(c2-n2ccn(-c4ccc(C(=O)N(C)C5CC5)c(Cl)c4F)c2=O)[C@H](C)N(C(=O)c2cc4cc([C@H]5CCOC(C)(C)C5)ccc4n2[C@@]2(c4nc(=O)o[nH]4)C[C@@H]2C)CC3)cc(C)c1F [Compound 7] | 34700 | 3120 | 1.33 | 3.41 | 1.94 | 81.76 | 6.12 |
| Cc1cc(-n2nc3c(c2-n2ccn(-c4ccc(C(=O)N(C)C5CC5)c(F)c4F)c2=O)[C@H](C)N(C(=O)c2cc4cc([C@H]5CCOC(C)(C)C5)ccc4n2[C@@]2(c4nc(=O)o[nH]4)C[C@@H]2C)CC3)cc(C)c1F [Compound 5] | 36700 | 3880 | 1.33 | 3.11 | 2.38 | 105.86 | 7.69 |

From patent EP4737454A1, “GLP-1 RECEPTOR AGONIST, AND PREPARATION METHOD THEREFOR AND USE THEREOF” (Wayne Biotechnology Co., Ltd., priority 2023, dated 2025)
